Assay results: patent US12049475B2, “Bisphosphonate drug conjugates” (BRISE PHARMACEUTICALS CO., LTD., priority 2018, dated 2024)
“Also recorded” adds a separate entry of the source.

What was measured:
CED mice [1] = experiment: CED mouse model, 8-week treatment: μCT of tibia and fracture incidence; conditions: for total BV/TV: among all groups; for bone fracture incidence: 100 μg/kg i.p. once a week, 2-month (8-week) treatment
Protocol: All transgenic animals used in this study are as described in the Animals section. […] During cell counting, microCT analysis and histological staining analysis, all manual quantification is performed in a blind manner to eliminate observer bias. Animals were randomly assigned to groups for experiments in CED animal studies.
(§1) Mice: According to Tang et al., Nat Med. 15:757-765 (2009), a mutation in the coding area of the TGF-β1 latency protein was generated in mice, and the active form of TGF-β1 was secreted by osteoblasts. […] All mice received the intraperitoneal injections once a week for 2 months, beginning at 1 month of age until sacrifice at 3 months of age. The tibias of the mice were collected and analyzed.
Microcomputed tomography analysis: Tibia collected from mice were dissected to remove soft tissue, fixed overnight in 70% ethanol, and analyzed with a high-resolution microcomputed tomography (μCT) imaging system (MicroCT40; Scanco Medical AG, Basserdorf, Switzerland). The scanner was set at a voltage of 55 kVp and a current of 109 μA. The resulting two-dimensional longitude-sectional images or three-dimensional whole-bone images are shown in gray scale. Three-dimensional structural parameters, total bone volume per tissue volume, cortical bone volume, cortical bone thickness, and cortical bone porosity were given.

CED mice [2] = experiment: CED mouse model: histology and immunofluorescence of tibia (HE, TRAP, Ocn, Osx, Col1, CD31/Emcn, LepR); assay type: in vivo; conditions: for number of Col1+ cells compared with Littermate group / number of Ocn+ cells compared with Littermate group / number of Osx+ cells compared with Littermate group: co-staining with Emcn; for LepR+pSmad2/3+ dual positive BMSC (immunofluorescence): tibia sections
Protocol: as §1
(§2) Immunostaining was performed using a standard protocol.
Immunofluorescence staining was performed using as described. […] Secondary antibodies conjugated with fluorescence were added, and slides were incubated at room temperature for 1 h while avoiding light. Sections were microphotographed to perform histomorphometric measurements (Olympus DP71). The quantitative histomorphometric analysis was conducted in a blinded fashion with OsteoMeasureXP Software (OsteoMetrics, Inc.). […]

CED mice [3] = experiment: CED mouse model: flow cytometry of tibia bone marrow cells; assay type: in vivo; conditions: for CD31+Emcn+ double positive cells (FACS of tibia bone marrow): 8-week treatment; for number of LepR+ cells in bone marrow (FACS): distal one-third of tibia, 2 months of treatment
Protocol: Flow cytometry: Bone marrow cells in the distal one-third of tibia were collected from each group (n=6) after 2 months of conjugate treatment. Red blood cells were lysed in commercial ACK lysis buffer (Quality Biological, Inc., 118-156-101). After centrifugation (1,200 r.p.m. for 5 min at room temperature), cell pellets were resuspended and fixed in 4% PFA. Cells were then washed with 0.1% BSA in PBS and counted. One million cells per milliliter were permeabilized in 0.1% Triton X-100 before blocking in 3% FACS buffer (PBS, 3% FBS, and 0.1% NaN3 sodium azide) for 30 min on ice. Cells were incubated with endomucin antibody (Santa Cruz, sc-65495), Leptin Receptor (R&D, 1:100, AF497), or isotype control antibody for 1 h at 37° C. in a dark room and then washed twice with 0.1% BSA in PBS. After washing, cells were stained with APC-conjugated CD31 antibody (R&D Systems, FAB3628A) for 45 min. Cells were acquired immediately after washing with 3% FACS buffer. Probes were analyzed using a FACS Calibur flow cytometer and CellQuest software (Becton Dickinson).

[4] = pharmaceutical data, cited from earlier work
[5] = test system: TGF-β1 signaling (pSmad2) in HeLa cells; experiment: Western blot of pSmad2 in HeLa cells exposed to TGF-β1; assay type: cell-based, human
Protocol: (§3) Cell culture: HeLa cells and BMSCs from mice were cultured in Dulbecco's Modified Eagle's Medium (GIBCO) supplemented with 10% fetal bovine serum (FBS; Sigma), 100 units/ml penicillin, 100 μg/ml streptomycin (Sigma), and 2 mM glutamine and were incubated at 37° C. in a humidified chamber supplemented with 5% CO2. […] Cells were then exposed to 5 ng/ml of recombinant human TGF-β1 (R&D Systems) for 30 min and processed for cell staining and Western blotting.
Western blot: HeLa cells were lysed with […] and […] (Roche), and mixed with an equal volume of 2×SDS-PAGE sample buffer with DTT. Samples were boiled and cleared by centrifuge, separated by SDS-PAGE, and transferred onto nitrocellulose (NC) membranes. Membranes were blocked with 5% non-fat dry milk and incubated with primary antibodies at 4° C. overnight. Primary antibodies include rabbit anti-Smad2 antibody (Cell Signaling Technology, 3122, 1:1,000) and rabbit anti-Phospho-Smad2 (Ser465/467) antibody (Cell Signaling Technology, 3108, 1:1,000). HRP-conjugated goat anti-rabbit IgG (Santa Cruz Biotechnology, 2054, 1:5,000) was used as secondary antibody. Signals were detected with Super Signal West Dura Extended Duration Substrate (Thermo Scientific).

[6] = test system: TGF-β1 signaling (pSmad2/3) in BMSCs; experiment: pSmad2/3 immunofluorescence staining of BMSCs exposed to TGF-β1; assay type: cell-based, mice; conditions: 10 μM for 1 h, 24 h, 48 h, then 5 ng/ml TGF-β1 for 30 min
Protocol: as §3
Cell staining: BMSCs were washed 3 times with PBS and fixed by 4% paraformaldehyde (PFA) for 30 min. Cells were then washed 3 times with PBS and incubated with 3% BSA, 0.1% Triton in PBS for 1 h. […] Secondary antibodies conjugated with fluorescence were added, and plates were incubated at room temperature for 1 h while avoiding light. Cells were counted under the microscope (Olympus DP71).

wild-type mice = experiment: 7-day survival of wild-type mice after conjugate injection; assay type: in vivo
Protocol: FIG. 1 presents graphs showing that a conjugate of the present disclosure, Compound 1, delivers a TβR1I specifically to bone and releases it in a time-dependent manner. […] Part (C) presents quantification of the Western-blot band intensity in (B). Data are presented as relative level of p-SMAD2/SMAD2 ratio normalized to DMSO condition. […] Part (E) presents quantification data of pSmad2/3^+ cells in (D). […] Of 6 mice in the 5 mg/kg group, 2 died in 7 days. […] Part (H) presents quantification data of pSmad2/3^+ cells in (G). In FIG. 1, the following conventions are used: NS, not significant. **P<0.01, ****P<0.0001 determined by multifactorial ANOVA. All data are reported as the mean±s.d.

TGF-β1 signaling pathway = experiment: CED mouse model: pSmad2/3 immunohistochemistry of tibia; assay type: in vivo, mice; conditions: 8-week treatment, compared with CED group and ALN group
Protocol: as §1, §2
Immunofluorescence staining was performed using as described. […] Secondary antibodies conjugated with fluorescence were added, and slides were incubated at room temperature for 1 h while avoiding light. Sections were microphotographed to perform histomorphometric measurements (Olympus DP71). The quantitative histomorphometric analysis was conducted in a blinded fashion with OsteoMeasureXP Software (OsteoMetrics, Inc.). The number of positively stained cells in the whole tibia subchondral bone area per specimen was counted in five sequential sections per mouse in each group.

[7] = test system: heart, liver, lung, and kidney; experiment: HE and pSmad2/3 staining of heart, liver, kidney and lung; assay type: in vivo, mice; conditions: after conjugate administration
Protocol: as §2

[8] = test system: TGF-β1 signaling in tibias; experiment: pSmad2/3 staining of tibias after intraperitoneal injection (bone delivery and release); conditions: 100 μg/kg intraperitoneal injection, compared with vehicle control
Protocol: Histochemistry, immunohistochemistry, and immunofluorescence: At the time of euthanasia, tibias were collected and fixed in 10% buffered formalin for 48 h, decalcified in 10% EDTA (pH 7.4) for 14 d, and then embedded in paraffin. […] Immunostaining was performed using a standard protocol. Sections were incubated with primary antibodies to mouse pSmad2/3 (Santa Cruz Biotechnology Inc., 1:50, sc-11769) and osteocalcin (Takara Bio Inc., 1:200, M137) overnight at 4° C. For immunohistochemical staining, a liquid Diaminobenzidine (DAB)+Chromogen System (Dako, K3468) was used to detect immunoreactivity, followed by counterstaining with hematoxylin and eosin (Sigma-Aldrich, MHS16).
Compound 1 was also tested for tissue distribution following intraperitoneal injection. […] It was then determined whether the conjugate delivered TβR1I (TGF-beta type 1 receptor inhibitor) specifically to bone and hydrolyzed over time (intraperitoneal injection, DMSO, 100 μg/kg of ALN, Inhibitor, or Conjugate).

bone metastasis = conditions: literature; cited from earlier work
CED mice [9] = conditions: intraperitoneal injection; Nat Med. 15:757-765 (2009); cited from earlier work

## NCCCC(O)(P(=O)(O)O)P(=O)(O)O [ALN, 4-amino-1-hydroxybutylidene-1,1-bisphosphonic acid monosodium trihydrate, reference compound]
CED mice [1]; 100 μg/kg per week, 8 weeks
  bone porosity rate: significantly increased
  cortical bone thickness: significantly increased
  total cortical bone volume: decreased
  total BV/TV: no significant difference
CED mice [1]; CED mice
  bone fracture incidence: 50%
CED mice [2]; 8-week treatment
  CD31+Emcn+ vessel surfaces (immunofluorescence): highly increased
CED mice [2]; 8-week treatment, compared with Conjugate and Littermate group
  bone formation in diaphysis bone marrow (HE staining): aberrant bone formation was found
CED mice [2]
  number of Col1+ cells compared with Littermate group: significantly increased
  number of Ocn+ cells compared with Littermate group: significantly increased
  number of Osx+ cells compared with Littermate group: significantly increased
  LepR+pSmad2/3+ dual positive BMSC (immunofluorescence): significantly increased
CED mice [3]
  CD31+Emcn+ double positive cells (FACS of tibia bone marrow): highly increased
  number of LepR+ cells in bone marrow (FACS): significantly increased
[4]
  time to reach bone: less than 2 hours
[4]; the rest is excreted in urine
  fraction that reaches bone: 50-70%

## O=C(NCCCC(O)(P(=O)(O)O)P(=O)(O)O)OCCOc1ccc2c(-c3c(-c4ccccn4)nn4c3CCC4)ccnc2c1 [Compound 1, (1-hydroxy-4-(((2-((4-(2-(pyridin-2-yl)-5,6-dihydro-4H-pyrrolo[1,2-b]pyrazol-3-yl)quinolin-7-yl)oxy)ethoxy)carbonyl)amino)butane-1,1-diyl)bis(phosphonic acid)]
[5]; HeLa cells, 10 μM for 1 h, 24 h, 48 h, then 5 ng/ml TGF-β1 for 30 min
  expression level of pSmad2 (Western blot): significantly reduced
[5]; Western blotting and immunofluorescence staining
  start of TβR1I release in cells (after): ≥ 24 h
[6]
  number of pSmad2/3-positive cells (immunofluorescence): significantly reduced
wild-type mice; 50 μg/kg, one intraperitoneal injection per week, n=6
  7-day survival: no mice death; also recorded: survived for 7 days
wild-type mice; 100 μg/kg, one intraperitoneal injection per week, n=6
  7-day survival: no mice death; also recorded: survived for 7 days
wild-type mice; 1 mg/kg, one intraperitoneal injection per week, n=6
  7-day survival: no mice death; also recorded: survived for 7 days
wild-type mice; 5 mg/kg, one intraperitoneal injection per week
  mice that died in 7 days (of 6): 2
wild-type mice; 10 mg/kg, one intraperitoneal injection per week
  7-day survival: all died in 3 days
wild-type mice; intraperitoneal administration, wild-type mice
  safe dose: below 5 mg/kg per week
CED mice [1]; 100 μg/kg per week, 8 weeks
  cortical bone parameters compared with Littermate group: no significant difference
  total BV/TV: no significant difference
CED mice [1]; 100 μg/kg per week, 8 weeks, compared with CED and ALN-treated mice
  bone morphology of tibia (μCT three-dimensional reconstruction): significantly improved
CED mice [1]; 100 μg/kg per week, 8 weeks, tibia cross-sections
  total BV/TV distribution: restored
CED mice [1]; 2-month treatment
  bone parameters: restored bone parameters
CED mice [1]; CED mice
  side effects: no obvious side effects
  bone fracture incidence: 8.3%
CED mice [1]; CED mice, intraperitoneal
  dose that effectively attenuated CED progression: 100 μg/kg per week
TGF-β1 signaling pathway
  pSmad2/3 positive cells in tibia: significantly decreased
CED mice [2]; 2-month treatment
  bone remodeling of CED mice: restored normal bone remodeling
CED mice [2]; 8-week treatment
  CD31+Emcn+ vessel surfaces (immunofluorescence): rescued abnormal vessel formation
CED mice [2]; 8-week treatment, diaphysis
  number of TRAP+ cells: decreased
CED mice [2]; 8-week treatment, diaphysis, TRAP and Ocn co-staining
  number of Ocn+ cells: decreased
CED mice [2]; CED mice
  level of TGF-β1: decreased
  number and distribution of Osx+, Col1α+, and Ocn+ cells: rescued
  type H vessels: significantly decreased
CED mice [2]
  number of Col1+ cells compared with Littermate group: no significant difference
  number of Ocn+ cells compared with Littermate group: no significant difference
  number of Osx+ cells compared with Littermate group: no significant difference
  LepR+pSmad2/3+ dual positive BMSC (immunofluorescence): significantly decreased
CED mice [3]
  CD31+Emcn+ double positive cells (FACS of tibia bone marrow): significantly reduced
CED mice [3]; listed as conjugate
  number of LepR+ cells in bone marrow (FACS): significantly decreased
[7]
  HE staining and pSmad2/3 staining of heart, liver, lung, and kidney: normal tissue structures and TGF-β1 activation; also recorded: does not affect other organs
[8]
  TGF-β1 signaling in tibias (pSmad2/3 staining): significantly reduced; also recorded: inhibited in a time-dependent manner

## OCCOc1ccc2c(-c3c(-c4ccccn4)nn4c3CCC4)ccnc2c1 [Compound S-3, reference compound]
[8]
  TGF-β1 signaling in tibias (pSmad2/3 staining): did not inhibit TGF-β1 signaling; also recorded: did not show significant differences

## c1ccc(-c2nn3c(c2-c2ccnc4cc(OCCN5CCOCC5)ccc24)CCC3)nc1 [LY2109761]
Bone metastasis
  bone metastasis in mice: reduce a potential of bone metastasis

## Cc1cccc(-c2[nH]c(C(C)(C)C)nc2-c2ccc3c(c2)OCO3)n1 [SB505124]
CED mice [9]
  bone remodeling defects in CED mice: rescued bone remodeling defects

## Fc1ccc(Cl)cc1-c1nc(Nc2ccncc2)c2nccnc2n1 [SD-208]
Bone metastasis
  bone metastasis in mice: effective in treating mice with bone metastases
